# Data as given in PubChem BioAssay (NCI).
# Values joined by “and” are separate entries in the source; they are usually repeats but may differ in a detail not shown here. Equal entries are not always repeated.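 Five concentrations, 48 hours, 96-well plates. Abbreviation: GI50, concentration required for 50% inhibition of growth. TGI: concentration producing complete growth inhibition.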
# Tests used:
# Experiment in all cases: NCI tumour cell line growth inhibition, 48 h
# A498 renal = tested on: A498 renal
# EKVX NSCLC = tested on: EKVX NSCLC
# HCT-116 colon = tested on: HCT-116 colon
# HT29 colon = tested on: HT29 colon
# NCI-H23 lung = tested on: NCI-H23 lung
# OVCAR-3 ovarian = tested on: OVCAR-3 ovarian
# SF-268 CNS = tested on: SF-268 CNS
# SF-539 CNS = tested on: SF-539 CNS
# SK-MEL-2 melanoma = tested on: SK-MEL-2 melanoma
# TK-10 renal = tested on: TK-10 renal
Structure (SMILES),TGI (A498 renal),TGI (EKVX NSCLC),TGI (HCT-116 colon),TGI (HT29 colon),TGI (NCI-H23 lung),TGI (OVCAR-3 ovarian),TGI (SF-268 CNS),TGI (SF-539 CNS) [µM],TGI (SK-MEL-2 melanoma),TGI (TK-10 renal) [µM],GI50 (A498 renal),GI50 (EKVX NSCLC),GI50 (HCT-116 colon) [µM],GI50 (HT29 colon) [µM],GI50 (NCI-H23 lung),GI50 (OVCAR-3 ovarian) [µM],GI50 (SF-268 CNS),GI50 (SF-539 CNS) [µM],GI50 (SK-MEL-2 melanoma) [µM],GI50 (TK-10 renal) [µM]
O=C(/C=C/c1ccccc1)c1ccc(NCc2nc3ccccc3[nH]2)cc1,18.3 µM,22.5 µM,13 µM,7.73 µM,11 µM,9.57 µM,20.9 µM,5.02,25.5 µM,24,,,,,,,,,,
CNC(=O)c1nn(C)c2c1C(C)(C)Cc1cnc(Nc3ccc(N4CCN(C)CC4)cc3)nc1-2,0.861 µM,> 10 µM,> 9.48 µM,> 10 µM,> 7.26 µM,> 10 µM,> 10 µM,> 6.03,> 8.25 µM,> 10,0.139 µM,1.93 µM,0.346,0.94,0.966 µM,0.966,1.34 µM,1.39,0.432,0.116
O=[N+]([O-])c1ccc(Sc2c3ccccc3nc3cc(Cl)ccc23)cc1,> 100 µM,> 100 µM,> 100 µM,> 100 µM,> 100 µM,> 100 µM,> 100 µM,,> 100 µM,> 100,> 100 µM,> 100 µM,> 100,,> 100 µM,> 100,> 100 µM,,> 100,> 100
C[C@H]1CCCC(O)C(O)[C@@H]2C[C@H](O[Si](C)(C)C(C)(C)C)C[C@H]2[C@H](O[Si](C)(C)C(C)(C)C)C(O)C(O)C(=O)O1 (stereo not given in full),> 100 µM,72.3 µM,> 100 µM,> 100 µM,,79.7 µM,> 100 µM,30.7,> 100 µM,43.2,40.4 µM,26.1 µM,28.3,62.7,,25,20 µM,14.4,34.8,17.2
Cn1cc(C2=C(c3cn(C4CCN(Cc5ccccn5)CC4)c4ccccc34)C(=O)NC2=O)c2ccccc21,,,> 100 µM,> 100 µM,> 100 µM,> 100 µM,> 100 µM,> 100,47.5 µM,> 100,,,3.03,2.4,6.31 µM,3.82,> 36.8 µM,3.03,3.08,> 41.5
O=C1CCCCN1CCCCC#Cc1cccc(C#Cc2cccnc2)c1,> 100 µM,> 100 µM,18.4 µM,40 µM,37.7 µM,71.4 µM,> 100 µM,> 100,,> 100,42.8 µM,23.5 µM,4.67,11.9,17.1 µM,22.6,27 µM,31.8,,49.8
CCN(C(=O)/C=C/c1ccco1)c1ccccc1,> 100 µM,> 100 µM,> 100 µM,> 100 µM,> 100 µM,> 100 µM,> 100 µM,,> 100 µM,> 100,,,,,,,,,,
CCCCCCCCCCCCCCCC[N+]1(C)CCOCC1,21.5 µM,20.1 µM,3.87 µM,3 µM,12.2 µM,3.61 µM,4.22 µM,4.07,,4.17,3.38 µM,3.42 µM,1.59,0.766,2.2 µM,1.56,1.63 µM,1.87,,1.86
CCNC(=O)COc1ccc(Cl)cc1Cl,> 100 µM,> 100 µM,> 100 µM,> 100 µM,> 100 µM,> 100 µM,> 100 µM,> 100,> 100 µM,,,,,,,,,,,
CSC1=Nc2ccccc2N=C(c2ccc(Cl)cc2)C1,,> 100 µM,> 100 µM,90 µM,> 100 µM,> 100 µM,> 100 µM,> 100,51.4 µM,,,,,,,,,,,
Cc1c2ccccc2cc2ccc3oc([N+](=O)[O-])cc3c12,> 100 µM,> 100 µM,> 100 µM,> 100 µM,,> 100 µM,> 100 µM,> 100,> 100 µM,> 100,,,,,,,,,,
CN(C)C(=S)/N=c1\ssc(=S)n1Cc1ccncc1,73.8 µM,> 100 µM,47.8 µM,,60.7 µM,32.9 µM,> 100 µM,48.4,52.2 µM,80.3,,,,,,,,,,
COC(=O)C1(C(=O)OC)CC(=O)c2cc3c(cc2-c2c(cc(OC)c(OC)c2OC)C1)OCO3,,> 211 µM,> 211 µM,> 211 µM,> 211 µM,> 211 µM,> 211 µM,> 211,> 211 µM,> 211,,,,,,,,,,
CCOC(=O)NC(=O)c1cn(CCN2CCN(C(=O)CCCCCCCCCCC(=O)N3CCN(CCn4cc(C(=O)NC(=O)OCC)c(=O)[nH]c4=O)CC3)CC2)c(=O)[nH]c1=O,> 100 µM,,> 100 µM,> 100 µM,> 100 µM,> 100 µM,> 100 µM,> 100,,> 100,,,,,,,,,,
O=c1c2cc(Br)ccc2nc(CCl)n1-c1ccc(O)c([N+](=O)[O-])c1,90.2 µM,31.4 µM,,68.2 µM,35.8 µM,33 µM,44 µM,33.5,31.1 µM,32.8,,,,,,,,,,
Cc1ccccc1C(=O)N1CCN(C(=O)c2ccccc2C)CC1,> 100 µM,> 100 µM,> 100 µM,> 100 µM,> 100 µM,> 100 µM,> 100 µM,> 100,,> 100,,,,,,,,,,
CCCCN(CCCC)C(=O)/C(CC(=O)c1cccc2ccccc12)=N\NC(=O)c1cc2ccccc2cc1O,,50.9 µM,28 µM,57.7 µM,45.6 µM,53.3 µM,70.9 µM,,45.7 µM,> 100,,,,,,,,,,
C[N+](C)(C)CC1CCCCC1O (stereo not given),> 100 µM,,> 100 µM,> 100 µM,> 100 µM,> 100 µM,> 100 µM,> 100,> 100 µM,> 100,,,,,,,,,,
c1ccc(N2N=C(c3ccco3)CC2c2ccco2)cc1 (stereo not given),,> 100 µM,> 100 µM,> 100 µM,> 100 µM,> 100 µM,> 100 µM,> 100,> 100 µM,> 100,,,,,,,,,,

Structure (SMILES),TGI (A498 renal),TGI (EKVX NSCLC),TGI (HCT-116 colon),TGI (HT29 colon),TGI (NCI-H23 lung),TGI (OVCAR-3 ovarian),TGI (SF-268 CNS),TGI (SF-539 CNS) [µM],TGI (SK-MEL-2 melanoma),TGI (TK-10 renal) [µM],GI50 (A498 renal),GI50 (EKVX NSCLC),GI50 (HCT-116 colon) [µM],GI50 (HT29 colon) [µM],GI50 (NCI-H23 lung),GI50 (OVCAR-3 ovarian) [µM],GI50 (SF-268 CNS),GI50 (SF-539 CNS) [µM],GI50 (SK-MEL-2 melanoma) [µM],GI50 (TK-10 renal) [µM]
CSc1nnc(COc2ccc(Cl)cc2)o1,> 100 µM,> 100 µM,> 100 µM,> 100 µM,> 100 µM,> 100 µM,> 100 µM,> 100,,> 100,,,,,,,,,,
CC(=O)OCC1OC(N2C(=O)C(=O)c3ccccc32)C(OC(C)=O)C(OC(C)=O)C1OC(C)=O (stereo not given),> 100 µM,> 100 µM,,> 100 µM,> 100 µM,> 100 µM,> 100 µM,> 100,> 100 µM,> 100,,,,,,,,,,
COc1ccc(CN2CCC/C=C/CC(Cl)(Cl)C2=O)cc1,73.7 µM,,> 100 µM,> 100 µM,99.5 µM,> 100 µM,> 100 µM,> 100,44.8 µM,> 100,,,,,,,,,,
Cn1c2c(c3ccccc31)CCN(CCN1CCN(c3cccc(Cl)c3)CC1)C2=O,> 100 µM,> 100 µM,> 100 µM,41 µM,> 100 µM,,> 100 µM,> 100,,> 100,,,,,,,,,,
COc1ccc(C(=O)NCCN(C)C)c2nc3ccccc3nc12,16.3 µM,33.2 µM,12.8 µM,15.1 µM,17.9 µM,> 29.3 µM,,17.6,11.8 µM,76.7,,,,,,,,,,
CCC(=O)Nc1nc2c(ncn2C2OC(COC(=O)CC)C(OC(=O)CC)C2OC(=O)CC)c(=O)[nH]1 (stereo not given),> 100 µM,> 100 µM,> 100 µM,> 100 µM,,> 100 µM,> 100 µM,> 100,> 100 µM,,,,,,,,,,,
C=C(C)C1C/C=C(/C)CCCC2(CCC3=C(CC(C(=C)C)C/C=C(/C)CCC3)O2)C(=O)C1 (stereo not given),> 100 µM,> 100 µM,> 100 µM,> 100 µM,> 100 µM,,> 100 µM,> 100,> 100 µM,> 100,,,,,,,,,,
CCCCn1c(-c2ccc(C(=O)O/N=C(\N)c3ccc4c(c3)OCO4)cc2)nc(-c2ccccc2)c1-c1ccccc1,2.82 µM,7.74 µM,3.66 µM,> 100 µM,> 100 µM,,4.37 µM,10.2,> 100 µM,,0.306 µM,2.07 µM,1.7,3.33,2.23 µM,,1.97 µM,3,4.19,
O=S(=O)(CCCl)c1ccc(Cl)cc1,9.94 µM,,11.9 µM,13.8 µM,20.6 µM,10.6 µM,10.8 µM,7.08,5.55 µM,6.44,2.26 µM,,2.74,3.23,4.79 µM,2.84,2.87 µM,2.46,2.17,2.32
CSC(=S)N/N=C/c1nccc2ccccc12,13.6 µM,12.8 µM,> 100 µM,> 67.5 µM,5.03 µM,,9.65 µM,4.83,5.89 µM,62.9,,,,,,,,,,
Cc1ccc(-c2nc3nc(-c4ccc(F)cc4)nc(N4CCCNCC4)c3o2)cc1,3.12 µM,3.34 µM,1.73 µM,,3.47 µM,2.96 µM,3.44 µM,3.04,3.35 µM,3.09,1.68 µM,1.78 µM,0.457,,1.82 µM,1.55,1.73 µM,1.66,1.73,1.66
Cc1ccccc1NC(=O)C1C(=O)N(c2ccccc2C)C(=O)/C1=N\NC(N)=S (stereo not given),,> 100 µM,> 100 µM,> 100 µM,> 100 µM,> 100 µM,> 100 µM,> 100,> 100 µM,> 100,,,,,,,,,,
CCC1=CC2CN(C1)Cc1c([nH]c3ccccc13)[C@@](C(=O)OC)(c1cc3c(cc1OC)N(C)[C@H]1[C@@](O)(C(=O)OC)[C@H](OC(C)=O)[C@]4(CC)C=CCN5CC[C@]31[C@@H]54)C2 (stereo not given in full),0.326 µM and 0.151 µM,50 µM and > 100 µM,50 µM and > 100 µM,6 µM and 20.9 µM,50 µM and > 100 µM,0.00611 µM and 0.0135 µM,50 µM and 91 µM,8.44,14.9 µM and > 100 µM,,0.014 µM and 0.0173 µM,26.7 µM and 45.8 µM,< 0.005,< 0.005,0.0176 µM and 0.0134 µM,< 0.005,0.122 µM and 0.145 µM,0.014,,
COc1ccc2[nH]c3c(c2c1)[C@H](C)C[C@@H]1C(=O)N(c2ccccc2)C(=O)[C@H]31,64.9 µM,> 100 µM,38.8 µM,,66.8 µM,56.1 µM,63.1 µM,41,> 100 µM,> 100,,,,,,,,,,
COc1cnc2c(c1)C(=O)c1c-2n(CCCN2CCN(C)CC2)c(=O)c2cc([N+](=O)[O-])ccc12,,2.05 µM,,0.352 µM,2.6 µM,0.359 µM,1.64 µM,0.386,23.2 µM,0.715,,0.514 µM,,0.167,0.362 µM,0.171,0.206 µM,0.191,11,0.237
O=C(N[C@@H](C[Se][Se]C[C@H](NC(=O)c1ccc(Br)cc1F)C(=O)O)C(=O)O)c1ccc(Br)cc1F,> 100 µM,> 100 µM,> 100 µM,> 100 µM,> 100 µM,> 100 µM,> 100 µM,> 100,,> 100,> 100 µM,> 100 µM,> 100,> 100,> 100 µM,> 100,> 100 µM,> 100,,> 100
CCOC(=O)C(NC(=O)c1nc[nH]c1[N+](=O)[O-])C(C)C (stereo not given),> 100 µM,> 100 µM,> 100 µM,> 100 µM,> 100 µM,> 100 µM,> 100 µM,> 100,> 100 µM,,,,,,,,,,,
CSC(=NCCc1c[nH]c2ccccc12)NC#N,,> 100 µM,> 100 µM,> 100 µM,> 100 µM,> 100 µM,> 100 µM,> 100,,> 100,,,,,,,,,,
